Reference: paper PMC7155171, “Probing the Open Global Health Chemical Diversity Library for Multistage-Active Starting Points for Next-Generation Antimalarials” (ACS Infectious Diseases, 2020)

Tests used:
[1] = biological target: recombinant firefly luciferase (Photinus pyralis, UniProt P08659); experiment: biochemical; settings: dose response; for Emax: maximum inhibition, read-out: rLuc inhibition dose response: Maximum inhibition (%); for IC50: read-out: rLuc inhibition dose response: IC50
[2] = HepG2 cytotoxicity screening (CellTiter-Glo); settings: human, uninfected HepG2-A16-CD81 (EGFP) hepatocytes
[3] = system: HepG2-A16-CD81 hepatocytes; experiment: HepG2 cytotoxicity screening (CellTiter-Glo); settings: for HepG2 cytotoxicity 12pt dose response: Maximum inhibition (%): 12pt dose response
[4] = system: P. berghei liver stage (PbLuc); experiment: P. berghei luciferase liver stage (PbLuc) assay in HepG2-A16-CD81 hepatocytes; assay type: cell-based, Plasmodium berghei; settings: Plasmodium berghei; for IC50: HepG2-A16-CD81, 12pt dose response, read-out: PbLuc 12pt dose response: IC50; for Emax: HepG2-A16-CD81, 48 h, 12pt dose response, maximum inhibition

Sequence of recombinant firefly luciferase (P08659 whole entry): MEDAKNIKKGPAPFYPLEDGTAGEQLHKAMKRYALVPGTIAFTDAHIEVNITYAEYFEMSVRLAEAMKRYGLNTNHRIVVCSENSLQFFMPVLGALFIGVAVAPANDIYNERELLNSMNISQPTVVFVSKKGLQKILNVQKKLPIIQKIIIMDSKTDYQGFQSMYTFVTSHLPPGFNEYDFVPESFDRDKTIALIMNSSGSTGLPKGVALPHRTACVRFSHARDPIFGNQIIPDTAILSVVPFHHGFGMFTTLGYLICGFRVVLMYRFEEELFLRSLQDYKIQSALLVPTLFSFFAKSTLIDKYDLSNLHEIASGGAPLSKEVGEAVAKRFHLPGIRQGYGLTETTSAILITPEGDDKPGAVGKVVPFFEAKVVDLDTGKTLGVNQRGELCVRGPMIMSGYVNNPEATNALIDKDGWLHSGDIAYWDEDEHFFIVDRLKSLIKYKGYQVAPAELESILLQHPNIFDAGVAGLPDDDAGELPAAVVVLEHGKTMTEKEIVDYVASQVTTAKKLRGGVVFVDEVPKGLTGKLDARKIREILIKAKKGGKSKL

Row | SMILES | Emax [1] [%] | IC50 [1] [µM] | IC50 [2] [µM] | inhibition at 2 µM [2] [%] | HepG2 cytotoxicity 12pt dose response: Maximum inhibition (%) [3] [%] | IC50 [4] [µM] | Emax [4] [%] | HepG2 Cytotoxicity primary screen (2uM): % Inhibition [3] [%] | inhibition at 10 µM [2] [%]
1 | COc1cc(C)c(CN2CCc3nc4ccsc4c(=O)n3CC2)cc1C [UCSD-0801369] | 5.88 | > 25 | > 25 | 0 | 25.1 | 8.88 | 95.5 |  | 
2 | CC1(c2ccccc2)CCCN(Cc2cncn2C2CCCC2)C1 (stereo not shown) [UCSD-0827293] | 7.12 | > 25 | 18.7 |  | 58 | 13.5 | 95.5 | -6.73 | 
3 | Cc1ccoc1C(=O)NC1CCN(Cc2csc3c(F)cccc23)CC1 [UCSD-0846562] | 3.24 | > 25 | > 25 |  | 25.1 | 11.1 |  | -2.96 | 
4 | O=c1c2sccc2nc2n1CCN(Cc1ccccc1C(F)(F)F)CC2 [UCSD-0801403] | 18.4 | > 25 | > 25 | 0 | 19.7 | 6.77 | 95.7 |  | 
5 | CCc1nc(CN2CCCN(c3ncnc4ccccc34)CC2)no1 [UCSD-0620461] | 3.79 | > 50 | > 1.85 | 6.37 | 60.2 | 0.691 | 96.1 |  | 
6 | Cc1nc(NC(=O)c2c(-n3cnnn3)sc3c2CCCC3)sc1C [UCSD-0786506] | 15 | > 50 | > 50 | 10.9 | 4.09 | 0.253 | 88.6 |  | 
7 | CNC(=O)CCC(=O)N1CCOC(c2ccc3cc(OC)ccc3c2)C1 (stereo not shown) [UCSD-0831800] | 66.4 | 23.5 | > 25 | -0.85 | 1 | 0.000954 | 88.9 |  | 3.9
8 | Cc1ccc(N(CC(=O)c2ccc(Br)cc2)C2=NCCCCC2)cc1 [UCSD-0795313] | 7.66 | > 25 | > 25 |  | 28.6 | 13.6 | 93.4 | 0.00 | 
9 | COc1ccc2cc(C3CN(C(=O)N(C)C)CCO3)ccc2c1 (stereo not shown) [UCSD-0838135] | 91.8 | 3.45 | > 25 | -0.4 | 6.4 | < 0.000141 | 82.4 |  | 
10 | CC(C)Cc1ccc(S(=O)(=O)Nc2ccc(=O)n(C)c2)cc1 [UCSD-0710590] | 7.28 | > 25 | > 0.31 | 3.02 | 60.9 | 0.0472 | 91.6 |  | 
11 | COc1cc(CNCc2ccnc(N3CCCCC3)c2)cc(OC)c1 [UCSD-0841255] | 1.69 | > 25 | > 25 |  | 36.6 | 11.3 | 85 | -2.79 | 
12 | Cc1[nH]/c(=N\C(=O)c2csc(NC3CCCC3)n2)sc1C [UCSD-0752597] | 92.3 | 44.4 | 11 | 8 | 87.9 | 0.832 | 121 |  | 
13 | Cn1cc(NS(=O)(=O)c2ccc(OC(F)(F)F)cc2)ccc1=O [UCSD-0710715] | 16.1 | > 25 | > 25 |  |  | 13.1 | 69.6 | -4.65 | 
14 | Cc1cc(-c2cnc(NCc3cccnc3)nc2C(C)(C)C)on1 [UCSD-0802583] | 6.14 | > 25 | > 25 |  | 45.3 | 10.1 | 86.4 | -8.43 | 
